The subject of one assay is H292 cells. The experiment in a line: MTS cell viability, H292. Type of assay: cell-based, human. To be noted: H292 NSCLC, 4 days. How it is done: (§1) All human cancer cell lines were maintained in RPMI media supplemented with 5% (lung and breast cancer cells) or 10% (melanoma cells) fetal bovine serum. […] Human mammary epithelial cells immortalised with telomerase were maintained in complete MEGM media from Cambrex (East Rutherford, NJ, USA).
(§2) Absorbance at 490 and 650 nm (reference wavelength) was measured by a Spectra Max (Molecular Devices, Sunnyvale, CA, USA) or a FlouroStar Omega (BMG Biosciences, Ortenberg, Germany) plate reader. Data were normalised to the untreated controls (100% viability). Each cell line was tested in 1–5 independent assays, each containing 4–8 replicates. IC50 values were calculated using DIVISA, a high-throughput software, developed in-house (manuscript in preparation), for storing and analysing drug sensitivity assays. Dose–response curves were plotted using a non-linear regression model and IC50s were determined from the fitted curves.

The test system of another assay is H358 cells. In words: MTS cell viability, H358. Type of assay: cell-based, human. To be noted: H358 NSCLC, 4 days. The protocol: as §1, §2
For another assay, the system named is H1395 cells. In words: MTS cell viability, H1395. The class given is cell-based, human. As to conditions: H1395 NSCLC, 4 days. The protocol:
as §1, §2

Another assay relates to H1993 cells. In words: MTS cell viability, H1993. The class given is cell-based, human. As to conditions: H1993 NSCLC, MTS, 4 days. How it is done: as §1, §2
In another assay the test system is H1355 cells. The experiment in a line: MTS cell viability, H1355. Type of assay: cell-based, human. To be noted: H1355 NSCLC, 4 days. The protocol:
as §1, §2

Assay [1] concerns H1437 cells. In words: MTS cell viability, H1437. Type of assay: cell-based, human. To be noted: H1437 NSCLC, MTS, 4 days. How it is done:
as §1, §2

The subject of another assay is H2086 cells. In words: MTS cell viability, H2086. Type of assay: cell-based, human. As to conditions: H2086 NSCLC, 4 days. How it is done: as §1, §2
Another assay deals with MCF-7 cells. In words: MTS cell viability, MCF-7. Type of assay: cell-based, human. As to conditions: 4 days; for IC50: MCF-7 breast cancer line. The protocol:
as §1, §2

For another assay, the system named is MCF-10 cells. The experiment in a line: MTS cell viability, MCF-10. The class given is cell-based, human. To be noted: MCF-10, MTS, 4 days. The protocol: as §1, §2
Another assay concerns SKMEL5 melanoma cells. The experiment in a line: MTS cell viability, SKMEL5. The class given is cell-based, human. As to conditions: 4 days. The protocol:
as §1, §2

Another assay concerns UACC62 melanoma cells. In words: MTS cell viability, UACC62. Type of assay: cell-based, human. As to conditions: 4 days. The protocol:
as §1, §2

The test system of the next assay is MALME3M melanoma cells. The experiment in a line: MTS cell viability, MALME3M. As to conditions: 4 days. The class given is cell-based, human. How it is done: as §1, §2
The test system of assay [2] is HBEC34KT human bronchial epithelial cells. In words: MTS cell viability, HBEC34KT. The class given is cell-based. To be noted: HBEC34KT (normal, matched to HCC4018), 4 days. The protocol:
as §1, §2

Assay [3] has as its system total HDAC activity, C127 cells. The experiment in a line: Total HDAC activity in lysates from drug-treated cells. Type of assay: cell-based. To be noted: 25 nM. An excerpt:
HDAC2 was purified as described below.

The subject of assay [4] is H1437 cells. The experiment in a line: ATP-based cell viability, H1437 vs H1299. The arrangement: species or system human. As to conditions: cell viability by ATP measurements. An excerpt: Supplementary Material Chang et al
This supplementary material contains:
-Supplementary Figure Legends
-Supplementary Figures 1- 4
Please see separate excel file for Supplementary Table 1.
Supplementary Figure Legends
Supplementary Figure 1: Expanded panel of cell lines showing distinct relative sensitivities to
TSA vs. depsipeptide. Lung cancer cell lines not depicted in the main Figure 1A are shown in A)
and an expanded set of breast cancer cells and HMES and melanomacells and melanocytes in
Supplementary Figure 2: Differential response to HDAC inhibitors is a general phenomenon. A)
H1299 also by ATP measurements.
Supplementary Figure 3: HDAC ex pression levels may contribute to drug sensitivity. A)
B) HDAC 2 levels are similar in the cell line
Supplementary Figure 4: Validation of microarray gene expression differences in the
H1993/H2073 cell line pair confirmed overexpression of glutathione metabolism genes in H2073
(shown in A) and downregulation of chromatin interacting proteins (B).

Assay [5] deals with purified recombinant HDAC1 (Homo sapiens, UniProt Q13547). As to conditions: 50 nM.
purified recombinant HDAC1, sequence (Q13547 whole entry, species assumed): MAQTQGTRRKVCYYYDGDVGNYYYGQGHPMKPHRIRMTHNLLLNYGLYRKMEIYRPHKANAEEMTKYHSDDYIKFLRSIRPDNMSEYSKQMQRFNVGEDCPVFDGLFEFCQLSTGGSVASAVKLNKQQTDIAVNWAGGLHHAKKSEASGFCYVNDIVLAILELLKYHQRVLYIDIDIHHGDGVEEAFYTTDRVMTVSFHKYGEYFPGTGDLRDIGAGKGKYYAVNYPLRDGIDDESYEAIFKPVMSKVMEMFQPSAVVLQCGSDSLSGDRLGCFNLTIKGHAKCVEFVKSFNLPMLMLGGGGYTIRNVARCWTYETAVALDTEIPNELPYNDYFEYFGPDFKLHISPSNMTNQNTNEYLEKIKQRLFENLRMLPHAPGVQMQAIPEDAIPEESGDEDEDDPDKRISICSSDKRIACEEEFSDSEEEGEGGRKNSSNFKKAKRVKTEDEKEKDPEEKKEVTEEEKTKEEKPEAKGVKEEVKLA
Source text: (§3) Cell extracts or purified recombinant HDAC enzymes were used in standard HDAC activity assays using Millipore's HDAC Fluorometric Assay Kit (Millipore, Billerica, MA, USA), according to the manufacturer's protocol. A FluoroStar Omega plate reader (BMG Biosciences) was used for fluorescent detection. Purified recombinant active HDACs 1, 5 and 8 were purchased from Millipore/Upstate.
In assay [6] the target is purified recombinant HDAC8 (Homo sapiens, UniProt Q9BY41).
purified recombinant HDAC8, sequence (Q9BY41 whole entry, species assumed): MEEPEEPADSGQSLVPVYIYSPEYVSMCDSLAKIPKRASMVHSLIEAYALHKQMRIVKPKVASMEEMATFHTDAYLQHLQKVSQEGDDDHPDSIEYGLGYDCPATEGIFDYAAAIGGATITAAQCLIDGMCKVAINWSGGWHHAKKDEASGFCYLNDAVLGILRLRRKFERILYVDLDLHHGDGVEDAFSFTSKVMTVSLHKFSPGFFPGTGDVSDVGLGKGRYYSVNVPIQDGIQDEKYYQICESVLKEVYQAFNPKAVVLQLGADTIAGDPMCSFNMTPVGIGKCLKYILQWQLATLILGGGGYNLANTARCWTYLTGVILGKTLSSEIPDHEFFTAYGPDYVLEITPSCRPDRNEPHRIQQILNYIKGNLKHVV
Source text: as §3
In another assay the target is T1, recombinant murine HDAC2 (Mus musculus, UniProt P70288).
T1 construct: The murine HDAC2 open reading frame was amplified by PCR from the plasmid pME18S-HDAC2; FLAG (DYKDDDDK) (C); made in house; host or cells: Sf9 insect cells (baculovirus)
T1 sequence (P70288 whole entry): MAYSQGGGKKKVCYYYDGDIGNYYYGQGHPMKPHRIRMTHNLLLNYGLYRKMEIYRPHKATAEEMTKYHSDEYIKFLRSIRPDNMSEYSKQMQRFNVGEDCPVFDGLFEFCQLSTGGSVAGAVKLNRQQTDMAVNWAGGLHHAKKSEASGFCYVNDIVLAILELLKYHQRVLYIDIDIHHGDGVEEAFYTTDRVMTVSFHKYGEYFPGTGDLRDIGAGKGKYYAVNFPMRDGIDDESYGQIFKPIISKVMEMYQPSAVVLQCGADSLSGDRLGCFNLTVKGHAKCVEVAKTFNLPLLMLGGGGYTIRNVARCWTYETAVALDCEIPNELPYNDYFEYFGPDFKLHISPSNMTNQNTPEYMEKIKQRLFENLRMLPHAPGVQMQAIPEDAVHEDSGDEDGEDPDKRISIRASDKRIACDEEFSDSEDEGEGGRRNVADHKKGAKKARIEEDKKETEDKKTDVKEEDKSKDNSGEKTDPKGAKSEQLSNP
In words: HDAC fluorometric activity assay, purified HDAC2. The class given is biochemical. As to conditions: 400 nM.

Assay [7] relates to acetylated tubulin in H358 cells. In words: Western blot, acetylated tubulin. Type of assay: cell-based, human. To be noted: 200 nM, 24 h. How it is done:
Exponentially growing cells were treated with the appropriate compounds and harvested 4 or 24 h later in a standard nuclear lysis buffer and whole cell lysates were quantified. Equal amounts of total protein were loaded onto 4–12% Bis-Tris SDS gels and subjected to electrophoresis. After transferring onto nitrocellulose membranes, blots were probed for acetylated tubulin (Sigma, St Louis, MO, USA; T6793), acetylated histone 3 (Millipore/Upstate #06-599), acetylated histone 4 (Millipore/Upstate #07-329) or trimethylated histone 3 at lysine 9 (Millipore/Upstate #07-523). Actin (Santa Cruz, Santa Cruz, CA, USA; #1616) and HDAC1 (Affinity Bioreagents, Rockford, IL, USA; #PA1-860) were probed as loading controls. Quantification of bands in films was performed using two independent methods, which yielded similar results, Image J (NIH public software) and Quantity one (Bio-Rad, Hercules, CA, USA). The average of the two methods±s.e.m. is shown as specified in figure legends. For the MDR western analysis, a primary antibody against P-glycoprotein from Calbiochem (Darmstadt, Germany) was used according to the manufacturer's recommendations and HSP90 (Santa Cruz) was used as a loading control.
For orientation: A western blot detects proteins with antibodies after separation by electrophoresis.

The values below come from paper PMC3251870 (British Journal of Cancer, 2011).

Where two headings read alike, the source gives them in different places.

Source text for recombinant murine HDAC2: Cell extracts or purified recombinant HDAC enzymes were used in standard HDAC activity assays using Millipore's HDAC Fluorometric Assay Kit (Millipore, Billerica, MA, USA), according to the manufacturer's protocol. A FluoroStar Omega plate reader (BMG Biosciences) was used for fluorescent detection. […] HDAC2 was purified as described below.

Usually IC50 stands for the point on the concentration scale where inhibition reaches its midpoint. Read a low IC50 as inhibition by little substance. Consider `C/C=C1\NC(=O)[C@H]2CSSCC/C=C/[C@H](CC(=O)N[C@H](C(C)C)C(=O)N2)OC(=O)[C@H](C(C)C)NC1=O` [Depsipeptide, depsipeptide], for which the IC50 with H292 cells amounted to 0.7 nM; in the assay on H358 cells, 1.1 nM; in the assay with H1395 cells, 5.3 nM; in the assay with H1993 cells it was 1.2 nM; in the assay on H1355 cells, 1.8 nM; with H1437 cells [1], 0.5 nM. The IC50 in the assay with H2086 cells is 3.8 nM; with MCF-7 cells it was 4.2 nM; in the assay with MCF-10 cells, 2.4 nM; in the assay on SKMEL5 melanoma cells it was 1.5 nM; in the assay on UACC62 melanoma cells it was 0.9 nM; in the assay on MALME3M melanoma cells it was 0.7 nM. Besides, in assay [2], the IC50 came to 1.3 nM. Besides, the surviving population in the assay on MCF-7 cells (MCF7 cells) was 30–40%. In [3], the “total HDAC activity in lysates made from treated cells vs DMSO-treated cells” value was “strong inhibition”. In the assay on H1437 cells [4], the “sensitivity of H1437 compared to H1299” value is reported as “greater sensitivity”. In addition, the “inhibition of HDAC1 activity” value in assay [5] is recorded as “no inhibition”. Besides, the “inhibition of HDAC8 activity” value in assay [6] (50 nM) and in assay [6] (0.5 μM) was “no effect” in each case.

As for `CC(/C=C/C(=O)NO)=C\[C@@H](C)C(=O)c1ccc(N(C)C)cc1` [TSA, trichostatin A], the IC50 with H292 cells was 22.5 nM; in the assay with H358 cells it was 40 nM; with H1395 cells it was 41 nM; in the assay on H1993 cells, 93.5 nM; in the assay with H1355 cells it was 107 nM; in the assay with H1437 cells [1], 191 nM. Also, the 50% inhibitory concentration (IC50) in the assay on H2086 cells was 275 nM; in the assay on MCF-7 cells it was 90 nM; with MCF-10 cells, 96 nM; with SKMEL5 melanoma cells, 66 nM; with UACC62 melanoma cells, 238 nM; with MALME3M melanoma cells, 240 nM. For the same compound, half-maximal inhibition in [2] (IC50) required 346 nM. Besides, the “inhibition of HDAC2 activity” value at recombinant murine HDAC2 is listed as “fully inhibited”. The acetylated tubulin levels result in [7] is recorded as “increase”.
